From EP0785211A1, “New substituted 19-nor-pregnane derivatives” (LABORATOIRE THERAMEX, priority 1996, dated 1997)
Where two headings read alike, the source gives them in different places. Marks after values point to notes of the source that are not given here.

What was measured:
[1] = target: T1, human T47-D cell progesterone receptor (Homo sapiens, UniProt P06401); assay: Relative binding affinity to human T47-D cell progesterone receptor (competition against [3H]-ORG 2058); details: for RBA: relative binding affinity, nomegestrol acetate as reference = 100%
T1 construct: Human PR are readily available in high amounts from the T47-D cell line in culture; endogenous in cells; host or cells: T47-D human breast cancer cell line
T1 sequence (P06401 1-933): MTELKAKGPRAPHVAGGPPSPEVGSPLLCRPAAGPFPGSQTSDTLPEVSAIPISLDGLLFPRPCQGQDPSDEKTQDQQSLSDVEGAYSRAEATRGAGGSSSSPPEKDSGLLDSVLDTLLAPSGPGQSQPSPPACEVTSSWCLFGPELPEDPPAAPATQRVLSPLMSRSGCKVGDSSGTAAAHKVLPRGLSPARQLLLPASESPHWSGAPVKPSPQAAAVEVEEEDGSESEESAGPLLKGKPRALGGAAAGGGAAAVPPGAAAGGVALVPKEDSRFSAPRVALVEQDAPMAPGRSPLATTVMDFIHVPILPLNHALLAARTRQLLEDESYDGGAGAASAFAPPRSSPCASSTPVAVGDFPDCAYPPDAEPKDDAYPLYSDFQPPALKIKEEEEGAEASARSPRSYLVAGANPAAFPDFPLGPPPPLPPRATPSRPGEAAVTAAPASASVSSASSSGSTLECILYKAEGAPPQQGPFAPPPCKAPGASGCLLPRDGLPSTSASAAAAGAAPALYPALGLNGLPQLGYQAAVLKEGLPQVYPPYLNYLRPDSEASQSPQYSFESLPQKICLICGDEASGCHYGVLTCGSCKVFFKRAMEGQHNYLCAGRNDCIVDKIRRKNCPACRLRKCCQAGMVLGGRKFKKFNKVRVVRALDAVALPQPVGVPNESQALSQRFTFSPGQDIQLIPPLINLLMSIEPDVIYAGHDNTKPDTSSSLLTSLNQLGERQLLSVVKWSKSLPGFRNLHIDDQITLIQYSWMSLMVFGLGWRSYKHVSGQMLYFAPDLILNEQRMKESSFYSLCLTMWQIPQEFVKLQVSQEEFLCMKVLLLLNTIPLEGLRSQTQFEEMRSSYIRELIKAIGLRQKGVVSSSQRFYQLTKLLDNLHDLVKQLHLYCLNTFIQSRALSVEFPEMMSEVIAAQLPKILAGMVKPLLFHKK
Procedure: Relative binding affinities (RBA) for the human T47-D cell PR are determined as previously described (J. Botella, et al., J. Steroid Biochem. Molec. Biol., 1994, 50 : 41-47) using [^3H]-ORG 2058 as the labelled specific ligand (G. Fleischmann et al., Biochim. Biophys. Acta, 1978, 540 : 500-517) and nomegestrol acetate as the non-radioactive reference progestin. Competitive incubations were performed against 2 nM of [^3H]-ORG 2058 for 3 hours at 4°C with six different concentrations of non-labelled steroid, chosen between 4 and 256 nM following a 1/2^n dilution scheme. Displacement curves were fitted for each experiment, and the concentration inhibiting 50% of the specific binding of [^3H]-ORG 2058 was calculated for each curve (IC50).

[2] = system: uterus of estrogen-primed immature female rabbits; assay: Clauberg-McPhail test by oral administration (endometrial transformation, "dentelle"); format: in vivo, rabbit; details: for Relative activity: relative to nomegestrol acetate = 100%; for ED50: total dose giving mean McPhail grade equal to 2, maximal administered dose 0.75 mg
Source text: The progestative activity of the compounds of formula (I) can be evaluated in two specific experimental models : the affinity for the progesterone receptor (PR) in vitro, and the endometrial tranformation of the rabbit uterus in vivo.
One specific pharmacological test has been standardized in vivo for the detection and quantitation of pseudogestagenic activity since the mid-30's : it is based on the property of the uterus of estrogen-primed immature female rabbits to respond to very slight amounts of progestin by a typical endometrial transformation into a densely packed and interlaced epithelial network called "dentelle". The original test schedule, which includes 6 days of estrogen priming (total subcutaneous dose of 30 µg/rabbit of estradiol benzoate) followed by 5 days of progestative treatment, was designed as early as 1930 by C. Clauberg, Zentr. Gynäkol. 1930, 54 : 2757-2770. The semi-quantitative scale used to grade the intensity of the microscopical appearance of the "dentelle" was set up by M.K. McPhail, J. Physiol (London), 1934, 83, 145-156. This overall Clauberg-McPhail procedure has been extensively used to screen steroids for putative progestative activity in vivo and is still part of the basic hormonal profile of any new progestin such as norgestimate (A. Phillips et al., Contraception, 1987, 36, 181-192) or desogestrel (J. Van der Vies et al.,Arzneim. Forsch./Drug Res. 1983, 33, 231-236).
The progestative potency is inversely related to the dose needed to induce a half-maximal stimulation of the "dentelle", i.e. to record a mean McPhail grade equal to 2. This ED50 is deduced for the dose-response curve and expressed in total dose/rabbit/5 days. All compounds were tested for activity only following oral administration.

[3] = system: immature castrated male rats; assay: Residual androgenic activity: hypertrophy of ventral prostate and seminal vesicles after 10 daily administrations; format: in vivo, rat; details: for Seminal Vesicle / Ventral Prostate: mean ± s.e.m. of 8 animals; for androgenic potential (activity on the growth of male accessory sex organs): result in words, up to 20 mg/animal/day
Source text: The residual androgenic potential is an important feature to evaluate for any new progestin, because it is highly predictive of androgenic side-effects in women. One pharmacological model of androgenic activity has been standardized to screen steroids or related compounds in immature castrated male rats, using the hypertrophy of the ventral prostate and seminal vesicles as the endpoint, following 10 daily administrations (R.I. Dorfman, in Methods in Hormone Research, volume 2, LONDON, Academic Press, 1962 : 275-313; A.G. Hilgar et D.J. Hummel, Androgenic and Myogenic Endocrine Bioassay Data, edited by the U.S. Department of Health, Education and Welfare, […].C., 1964).
Medroxyprogesterone acetate is a 6α-methylpregnene derivative which, besides its main progestative activity, is well-known for its weak androgenic properties (M. Tausk et J. de Visser, In International Encyclopedia of Pharmacology and Therapeutics, Section 48 : Progesterone, Progestational Drugs and Antifertility Agents, volume II, OXFORD, Pergamon Press, 1972 : 35-216); it was therefore chosen as a reference compound in the testing for residual androgenic activity of test examples according to the invention.
The compounds of examples 2 and 7 were tested for residual androgenic properties in the immature castrated male rat model by oral administration (PO), in comparison with medroxyprogesterone acetate, in two different experiments (ventral prostate and seminal vesical hypertrophy), as described above; testosterone was used as a standard androgenic agent by subcutaneous injection (SC).

[4] = Table 3 experiment, SC, 0,05 mg/animal/day
[5] = Table 4 experiment, SC, 0,05 mg/animal/day

| SMILES | IC50 [1] | RBA [1] | Relative activity [2] | ED50 [2] | other results |
| --- | --- | --- | --- | --- | --- |
| CC(=O)O[C@]1(C(C)=O)C[C@@H](C)[C@H]2[C@@H]3C=C(C)C4=CC(=O)CC[C@@H]4[C@H]3CC[C@@]21C [Example 1, 17α-acetoxy-6,15β-dimethyl-3,20-dioxo-19-nor-pregna-4,6-diene] | 38 ± 10.3 nM | 43% | < 18% | > 0.750 mg/rabbit/5 days | – |
| CC(=O)O[C@]1(C(C)=O)C[C@@H](C)[C@H]2[C@@H]3C[C@H](C)C4=CC(=O)CC[C@@H]4[C@H]3CC[C@@]21C [Example 2, 17α-acetoxy-6α,15β-dimethyl-3,20-dioxo-19-nor-pregna-4-ene] | 28.8 ± 5.6 nM | 57% | 165% | 0.080 mg/rabbit/5 days | Seminal Vesicle ([3]; Table 3 experiment, PO, 20 mg/animal/day, castrated controls 10.4 ± 0.4): 12.1 ± 0.7 ns mg; Ventral Prostate ([3]; Table 3 experiment, PO, 20 mg/animal/day, castrated controls 14.6 ± 1.4): 13.0 ± 1.1 ns mg; androgenic potential (activity on the growth of male accessory sex organs) ([3]; PO): totally devoid of any activity on the growth of male accessory sex organs |
| CC(=O)O[C@]1(C(C)=O)[C@H]2C[C@H]2[C@H]2[C@@H]3C=C(C)C4=CC(=O)CC[C@@H]4[C@H]3CC[C@@]21C [Example 6, 17α-acetoxy-6-methyl-15β,16β-methylene-3,20-dioxo-19-nor-pregna-4,6-diene] | 21.1 ± 6 nM | 78% | < 18% | > 0.750 mg/rabbit/5 days | – |
| CC(=O)O[C@]1(C(C)=O)[C@H]2C[C@H]2[C@H]2[C@@H]3C[C@H](C)C4=CC(=O)CC[C@@H]4[C@H]3CC[C@@]21C [Example 7, 17α-acetoxy-6α-methyl-15β,16β-methylene-3,20-dioxo-19-nor-pregna-4-ene] | 19.7 ± 3 nM | 83% | 54% | 0.245 mg/rabbit/5 days | Ventral Prostate ([3]; Table 4 experiment, PO, 20 mg/animal/day, castrated controls 12.0 ± 0.9): 16.5 ± 0.9 mg; Seminal Vesicle ([3]; Table 4 experiment, PO, 20 mg/animal/day, castrated controls 12.3 ± 0.7): 13.9 ± 0.8 ns mg; androgenic potential (activity on the growth of male accessory sex organs) ([3]; PO): very limited androgenic potential |
| CCO[C@]1(C(C)=O)[C@H]2C[C@H]2[C@H]2[C@@H]3C[C@H](C)C4=CC(=O)CC[C@@H]4[C@H]3CC[C@@]21C [Example 8, 17α-ethoxy-15β,16β-methylene-6α-methyl-3,20-dioxo-19-nor-pregna-4-ene] | – | 78% | 99% | 0.133 mg/rabbit/5 days | IC50 ([1]; against 2 nM [3H]-ORG 2058, 3 hours at 4°C, mean ± s.e.m.): 21.1 ± 6 nM |
| CCO[C@]1(C(C)=O)[C@H]2C[C@H]2[C@H]2[C@@H]3C=C(C)C4=CC(=O)CC[C@@H]4[C@H]3CC[C@@]21C [Example 9, 17α-ethoxy-15β,16β-methylene-6-methyl-20-oxo-19-nor-pregna-4,6-diene] | 32.3 ± 5.3 nM | 51% | – | – | – |
| CC(=O)OC1(C(C)=O)C2CC2C2C3C(C)C(C)C4=CC(=O)CCC4C3CCC21C (stereo not drawn) [Example 10, 17α-acetoxy-6α,7α-dimethyl-15β,16β-methylene-3,20-dioxo-19-nor-pregna-4-ene] | – | – | 22% | 0.600 mg/rabbit/5 days | – |
| CC(=O)O[C@]1(C(C)=O)CC[C@H]2[C@@H]3[C@H](C)[C@H](C)C4=CC(=O)CC[C@@H]4[C@H]3CC[C@@]21C [Example 11, 17α-acetoxy-6α,7α-dimethyl-3,20-dioxo-19-nor-pregna-4-ene] | 25.5 ± 5.3 nM | 64% | 132% | 0.100 mg/rabbit/5 days | – |
| CC(=O)O[C@]1(C(C)=O)CC[C@H]2[C@@H]3C=C(C)C4=CC(=O)CC[C@@H]4[C@H]3CC[C@@]21C [Nomegestrol acetate, reference compound] | – | 100% | 100% | 0.132 ± 0.013^(a) (0.108/0.150/0.138) mg/rabbit/5 days | IC50 ([1]; against 2 nM [3H]-ORG 2058, 3 hours at 4°C, mean ± s.e.m., read-out: IC50): 16.4 ± 1.3 nM |
| C[C@]12CC[C@H]3[C@@H](CCC4=CC(=O)CC[C@@]43C)[C@@H]1CC[C@@H]2O [Testosterone, reference compound] | – | – | – | – | Seminal Vesicle [3, 4]: 85.9 ± 6.8 mg; Ventral Prostate [3, 4]: 85.1 ± 5.9 mg; Seminal Vesicle [3, 5]: 90.3 ± 6.3 mg; Ventral Prostate [3, 5]: 90.4 ± 4.4 mg |
